Literature values in paper PMC5950987 (Journal of Diabetes Science and Technology, 2017).

Conditions: administered by needle and syringe

With regular human insulin as the substance, how does the “Intraindividual variability of the metabolic effect” value read?
Its value is 10-30%.
